Measured values reported in patent US20040152746A1, “Treatment of scarring and related conditions using ppar-gamma activators” (priority 2001, published 2004).
Marks after values point to notes of the source that are not given here.

Tested on: Human dermal fibroblasts differentiated to myofibroblasts with TGF-beta1
Experiment: Myofibroblast number after treatment with pioglitazone (alpha-smooth muscle actin immunohistochemistry)
Format: cell-based
Settings: 3 days differentiation medium with 1 ng/ml TGF-beta1, % positive cells/total cells, control 3.47
Procedure: Human dermal fibroblasts were cultured on sterile cover-slips and allowed to adhere for 24 hours in fibroblast medium, i.e. (1.0 ml L-Glutamine (200 mM; Gibco), 1.0 ml non-essential amino acids, NEAA(100×; Gibco), 1.0 ml penicillin/streptomycin (100×Gibco), 10 ml new-born calf serum, NBCS (Gibco), 87 ml Dulbecco's modified Eagle's Medium, DMEM (Gibco)). At confluence, the medium was changed to myofibroblast differentiation medium, i.e. 1.0 ml L-Glutamine (200 mM; Gibco), 1.0 ml non-essential amino acids, NEAA(100×; Gibco), 10 ml penicillin/streptomycin (100×Gibco), 1 ml ITS (Insulin, Transferrin, Selenium)(100×Gibco)) supplemented with 1 ng/ml TGF-beta1 (Sigma). Myofibroblast differentiation was allowed to proceed for 3 days either in the presence of variable concentrations of pioglitazone or without. Myofibroblast number was determined by immunohistochemistry according to the following protocol. Cells were washed in phosphate buffered saline (PBS), then fixed in 3% paraformaldehyde for 5 mins followed by quenching in 50 mM ammonium chloride. The cells were then washed and permeabilised with 0.2% Triton X-100 in PBS. All antibodies were diluted into 0.2% fish skin gelatin (FSG) (Sigma). Prior to antibody detection non-specific binding was blocked using 0.2% FSG in PBS. Mouse anti-human alpha-smooth muscle actin (Sigma) was diluted 1:100 and incubated with the cells for 45 mins followed by washing. Rabbit anti-mouse immunoglobulin horseradish-peroxidase secondary antibody was incubated for 30 mins. Visualisation used Fast-DAB (Sigma) according to manufacturer's instructions. Cells were counterstained with haemotoxylin. […] Haemotoxylin stained nuclei were counted by the software using size-exclusion parameters which excluded small and large debris. Accuracy was determined within the software using binary overlays of the counted objects to examine if any non-nuclei counts occurred or if any nuclei were missed. […] DAB positive cells were counted by hand on the captured images. Counts are expressed as % positive cells/total cells.

CCc1ccc(CCOc2ccc(CC3SC(=O)NC3=O)cc2)nc1 (stereo not drawn) [pioglitazone]
% Myofibroblasts (0.1 μM pioglitazone, p < 0.05): 1.81* %
% Myofibroblasts (1 μM pioglitazone, p < 0.005): 0.71** %
% Myofibroblasts (10 μM pioglitazone, p < 0.005): 0.10** %
